Test results as given in US20140107109A1, “AMINO-DIHYDROTHIAZINE AND AMINO-DIOXIDO DIHYDROTHIAZINE COMPOUNDS AS BETA-SECRETASE ANTAGONISTS AND METHODS OF USE” (Amgen Inc., priority 2012, published 2014).

Key:
[1] = target: Beta Secretase enzyme (BACE1) (Homo sapiens, UniProt P56817); assay: In vitro enzymatic BACE FRET assay; format: biochemical; settings: read-out: BACE1 FRET assay IC50
Outline: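 Readout: dequenched fluorescence (ex 488 nm/[…]) after neutralizing with Tris buffer. Reactions, begun by adding 50 nM quenched peptide substrate spanning the BACE cleavage site, were incubated one hour at pH 4.2 in 0.05 M acetate with 100 uM genapol and 10% final DMSO.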

[2] = test system: Aβ40 in conditioned medium of cells stably expressing Amyloid Precursor Protein (APP); assay: In vitro BACE cell-based assay (HEK cell assay), Aβ40 sandwich ELISA; settings: Homo sapiens, HEK293
Outline: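 Aβ40 in conditioned medium was quantified by time-resolved fluorescence sandwich ELISA (pAb40 capture 3 h at 4 °C, biotin-6E10 detection 2 h at 4 °C) after 24 h compound exposure of APP-expressing cells. Doses spanned 10 points from 100 μM or 10 μM top, 0.1% DMSO; IC50 was derived from percent of control.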

Cathepsin D (Cat D) = target: T1, Cathepsin D (Cat D) (Homo sapiens, UniProt P07339); assay: In vitro enzymatic Cathepsin D (Cat D) FRET assay; format: biochemical; settings: read-out: CatD IC50
T1 construct: Recombinant Cat D was expressed in CHO cells; made in house; host or cells: CHO cells
Outline: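 FRET read-out: a fluorophore/quencher-labelled peptide substrate is cleaved by 9 nM Cat D (recombinant, CHO-expressed) following a one-hour preincubation with inhibitor dilutions in DMSO. Tris buffer added to neutralize pH ends the reaction before fluorescence measurement.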

Sequence of Beta Secretase enzyme (BACE1) (P56817 46-501): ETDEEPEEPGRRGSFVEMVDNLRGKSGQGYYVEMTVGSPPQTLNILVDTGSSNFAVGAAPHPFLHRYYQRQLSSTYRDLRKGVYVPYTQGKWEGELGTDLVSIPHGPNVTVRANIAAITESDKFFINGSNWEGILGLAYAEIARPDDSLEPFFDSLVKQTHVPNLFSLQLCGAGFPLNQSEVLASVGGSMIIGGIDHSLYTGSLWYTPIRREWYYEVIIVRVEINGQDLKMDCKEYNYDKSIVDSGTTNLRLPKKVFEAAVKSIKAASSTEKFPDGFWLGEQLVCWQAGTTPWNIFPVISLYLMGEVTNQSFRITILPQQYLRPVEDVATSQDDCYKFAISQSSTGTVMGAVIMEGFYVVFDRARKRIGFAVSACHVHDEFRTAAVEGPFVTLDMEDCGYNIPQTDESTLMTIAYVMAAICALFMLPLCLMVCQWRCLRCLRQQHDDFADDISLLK
T1 sequence (P07339 65-412, species assumed): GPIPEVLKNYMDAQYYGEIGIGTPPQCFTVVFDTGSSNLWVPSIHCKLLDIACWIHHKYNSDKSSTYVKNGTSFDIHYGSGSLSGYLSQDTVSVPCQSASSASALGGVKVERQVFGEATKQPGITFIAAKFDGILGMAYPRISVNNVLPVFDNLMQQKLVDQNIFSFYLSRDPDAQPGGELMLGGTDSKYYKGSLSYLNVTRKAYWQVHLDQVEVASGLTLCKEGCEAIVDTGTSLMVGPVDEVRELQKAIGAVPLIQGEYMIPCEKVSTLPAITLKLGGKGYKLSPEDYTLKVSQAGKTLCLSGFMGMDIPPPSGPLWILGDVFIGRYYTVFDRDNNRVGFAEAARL

| SMILES | IC50 [1] | IC50 [2] | IC50 (Cathepsin D (Cat D)) |
| --- | --- | --- | --- |
| CC1(C)C(N)=N[C@](CF)(c2cc(NC(=O)c3ncc(F)cc3F)ccc2F)CS1(=O)=O [Example 378, N-(3-((3S)-5-amino-3-(fluoromethyl)-6,6-dimethyl-1,1-dioxido-3,6-dihydro-2H-1,4-thiazin-3-yl)-4-fluorophenyl)-3,5-difluoro-2-pyridinecarboxamide] | 1.6 nM | 18 nM | > 400 µM |
| CC1(C)C(N)=N[C@](CF)(c2cc(NC(=O)c3ncc(C(F)(F)F)cc3Cl)ccc2F)CS1(=O)=O [Example 379, N-(3-((3S)-5-amino-3-(fluoromethyl)-6,6-dimethyl-1,1-dioxido-3,6-dihydro-2H-1,4-thiazin-3-yl)-4-fluorophenyl)-3-chloro-5-(trifluoromethyl)-2-pyridinecarboxamide] | 0.99 nM | 11.5 nM | 775 µM |
| CC1(C)C(N)=N[C@](CF)(c2cc(NC(=O)c3ncc(Cl)nc3Cl)ccc2F)CS1(=O)=O [Example 380, N-(3-((3S)-5-amino-3-(fluoromethyl)-6,6-dimethyl-1,1-dioxido-3,6-dihydro-2H-1,4-thiazin-3-yl)-4-fluorophenyl)-3,5-dichloro-2-pyrazinecarboxamide] | 1.8 nM | 999 nM | 282 µM |
| C=Cc1cc(Cl)cnc1C(=O)Nc1ccc(F)c([C@]2(CF)CS(=O)(=O)C(C)(C)C(N)=N2)c1 [Example 381, N-(3-((3S)-5-amino-3-(fluoromethyl)-6,6-dimethyl-1,1-dioxido-3,6-dihydro-2H-1,4-thiazin-3-yl)-4-fluorophenyl)-5-chloro-3-ethenyl-2-pyridinecarboxamide] | 0.86 nM | 53.9 nM | 194 µM |
| COc1cc(Cl)cnc1C(=O)Nc1ccc(F)c([C@]2(CF)CS(=O)(=O)C(C)(C)C(N)=N2)c1 [Example 382, N-(3-((3S)-5-amino-3-(fluoromethyl)-6,6-dimethyl-1,1-dioxido-3,6-dihydro-2H-1,4-thiazin-3-yl)-4-fluorophenyl)-5-chloro-3-methoxy-2-pyridinecarboxamide] | 1.8 nM | 17.3 nM | > 400 µM |
| CC1(C)C(N)=N[C@](CF)(c2cc(NC(=O)c3ccc(C(F)(F)F)cn3)ccc2F)CS1(=O)=O [Example 383, N-(3-((3S)-5-amino-3-(fluoromethyl)-6,6-dimethyl-1,1-dioxido-3,6-dihydro-2H-1,4-thiazin-3-yl)-4-fluorophenyl)-5-(trifluoromethyl)-2-pyridinecarboxamide] | 2.62 nM | 20 nM | 217 µM |
| CC1(C)C(N)=N[C@](C)(c2cc(Nc3ncnc4cc(C#N)cnc34)cnc2F)CS1(=O)=O [Example 384, 4-((5-((3R)-5-amino-3,6,6-trimethyl-1,1-dioxido-3,6-dihydro-2H-1,4-thiazin-3-yl)-6-fluoro-3-pyridinyl)amino)pyrido[3,2-d]pyrimidine-7-carbonitrile] | 6.36 nM | 23.9 nM | 47.3 µM |
| CC1(C)C(N)=N[C@](C)(c2cc(Nc3nccc4cc(C#N)cnc34)cnc2F)CS1(=O)=O [Example 385, 8-((5-((3R)-5-amino-3,6,6-trimethyl-1,1-dioxido-3,6-dihydro-2H-1,4-thiazin-3-yl)-6-fluoro-3-pyridinyl)amino)-1,7-naphthyridine-3-carbonitrile] | 2.62 nM | 3.7 nM | 67.6 µM |
| C[C@@]1(c2cc(Nc3nccc4cc(C#N)cnc34)cnc2F)CS(=O)(=O)C2(CCC2)C(N)=N1 [Example 386, 8-((5-((7R)-9-amino-7-methyl-5,5-dioxido-5-thia-8-azaspiro[3.5]non-8-en-7-yl)-6-fluoro-3-pyridinyl)amino)-1,7-naphthyridine-3-carbonitrile] | 4.09 nM | 14.1 nM | 54.7 µM |
| CC1(C)C(N)=N[C@](CF)(c2cc(Nc3nccc4cc(C#N)cnc34)ccc2F)CS1(=O)=O [Example 387, 8-((3-((3S)-5-amino-3-(fluoromethyl)-6,6-dimethyl-1,1-dioxido-3,6-dihydro-2H-1,4-thiazin-3-yl)-4-fluorophenyl)amino)-1,7-naphthyridine-3-carbonitrile] | 0.44 nM | 5.3 nM | 117 µM |
| Cc1cc(Cl)cnc1C(=O)Nc1ccc(F)c([C@]2(C)CS(=O)(=O)[C@@](C)(F)C(N)=N2)c1 [Example 388, N-(3-((3R,6R)-5-amino-6-fluoro-3,6-dimethyl-1,1-dioxido-3,6-dihydro-2H-1,4-thiazin-3-yl)-4-fluorophenyl)-5-chloro-3-methyl-2-pyridinecarboxamide] | 0.4 nM | 47.9 nM | 230 µM |
| CC1(C)C(N)=N[C@](CF)(c2cc(NC(=O)c3ccc(OCC#CCF)cn3)ccc2F)CS1(=O)=O [Example 389, N-(3-((3S)-5-amino-3-(fluoromethyl)-6,6-dimethyl-1,1-dioxido-3,6-dihydro-2H-1,4-thiazin-3-yl)-4-fluorophenyl)-5-((4-fluoro-2-butyn-1-yl)oxy)-2-pyridinecarboxamide] | 0.26 nM | 1.4 nM | 268 µM |
| Cc1c(C(=O)Nc2ccc(F)c([C@]3(CF)CS(=O)(=O)C(C)(C)C(N)=N3)c2)nc2ccc(C#N)cn12 [Example 390, N-(3-((3S)-5-amino-3-(fluoromethyl)-6,6-dimethyl-1,1-dioxido-3,6-dihydro-2H-1,4-thiazin-3-yl)-4-fluorophenyl)-6-cyano-3-methylimidazo[1,2-a]pyridine-2-carboxamide] | 4.85 nM | 23.6 nM | 379 µM |
| CC1(C)C(N)=N[C@](CF)(c2cc(NC(=O)c3cn4cc(Cl)ccc4n3)ccc2F)CS1(=O)=O [Example 391, N-(3-((3S)-5-amino-3-(fluoromethyl)-6,6-dimethyl-1,1-dioxido-3,6-dihydro-2H-1,4-thiazin-3-yl)-4-fluorophenyl)-6-chloroimidazo[1,2-a]pyridine-2-carboxamide] | 9.69 nM | 36.1 nM | 303 µM |
| COc1ccc2nc(C(=O)Nc3ccc(F)c([C@]4(CF)CS(=O)(=O)C(C)(C)C(N)=N4)c3)c(C)n2c1 [Example 392, N-(3-((3S)-5-amino-3-(fluoromethyl)-6,6-dimethyl-1,1-dioxido-3,6-dihydro-2H-1,4-thiazin-3-yl)-4-fluorophenyl)-6-methoxy-3-methylimidazo[1,2-a]pyridine-2-carboxamide] | 104 nM | 823 nM | 97.6 µM |
| Cc1c(C(=O)Nc2ccc(F)c([C@]3(CF)CS(=O)(=O)C(C)(C)C(N)=N3)c2)nc2ccc(F)cn12 [Example 393, N-(3-((3S)-5-amino-3-(fluoromethyl)-6,6-dimethyl-1,1-dioxido-3,6-dihydro-2H-1,4-thiazin-3-yl)-4-fluorophenyl)-6-fluoro-3-methylimidazo[1,2-a]pyridine-2-carboxamide] | 11.7 nM | 60.5 nM | 103 µM |
| CCc1c(C(=O)Nc2ccc(F)c([C@]3(CF)CS(=O)(=O)C(C)(C)C(N)=N3)c2)nc2ccc(Cl)cn12 [Example 394, N-(3-((3S)-5-amino-3-(fluoromethyl)-6,6-dimethyl-1,1-dioxido-3,6-dihydro-2H-1,4-thiazin-3-yl)-4-fluorophenyl)-6-chloro-3-ethylimidazo[1,2-a]pyridine-2-carboxamide] | 8.3 nM | 23.5 nM | > 14.8 µM |
